Reference: patent publication US20020174454A1, “Overexpression of ABI5 in plants to prevent precocious seed germination and to confer resistance to drought and high salt” (priority 2001, published 2002)

How the values were obtained:
Assay type in all cases: in vivo, Arabidopsis thaliana
[1] = system: WT Ws plants; assay: Survival after drought treatment on absorbing papers, WT Ws plants treated with ABA for 10 days; details: +ABA 5 μM for 10 days, n = 30
Protocol: (§1) Seeds of Arabidopsis thaliana, ecotype Wassilewskija, Columbia or Landsberg erecta were surface sterilized in 50% commercial bleach (Clorox) and 0.05% Tween 20 as described (Lopez-Molina and Chua, 2000) and then plated on Murashige and Skoog (MS) medium (Murashige and Skoog, 1962) containing 0.8% (w/v) Bacto-Agar (Difco Laboratories). Plates were routinely kept for 3 days in the dark at 4° C. to break dormancy (stratification) and transferred thereafter to a tissue culture room under constant white fluorescent light (27 μmol.m^−2.s^−1) at 22° C. Seeds of abi1, abi3-I and abi4 were obtained from the Nottingham Arabidopsis Stock Center (NASC). For ABA treatments, seedlings were transferred to plates supplemented with ABA (mixed isomers, Sigma A7393) which was dissolved in methanol. Control plates contained equal amounts of methanol.
(§2) To test this hypothesis, we broke embryo dormancy of WT and abi5-4 seeds in the absence of ABA for 24 hours. Seeds were then transferred for an additional 10 days to media with or without ABA. After 10 days, ABA-treated WT mature embryos had germinated but were arrested in growth as described above, whereas abi5-4 or non-treated WT Ws plants were green and continued to grow. Plants were then water-stressed for different time intervals on absorbent papers before being allowed to recover in normal medium. […] This is in sharp contrast with abi5-4 embryos, none of which survived. abi5-4 plants were able to survive better with than without ABA (Table 1), although not to the same extent as WT. […] Indeed, abi5-4 plants grow more slowly on 5 μM ABA than on medium lacking it, whereas the growth of WT plants is completely arrested. This developmental difference may be responsible for the higher resistance to water depletion of ABA-treated abi5-4 plants (Table 1).

[2] = system: abi5-4 plants; assay: Survival after drought treatment on absorbing papers, abi5-4 plants treated with ABA for 10 days; details: abi5, +ABA 5 μM for 10 days, n = 30
Protocol: as §1, §2

[3] = system: ABI5; assay: ABI5 protein accumulation in WT Ws seeds/seedlings by Western blot
Text: RNA extraction and Northern blot hybridizations were done as described (Lopez-Molina and Chua, 2000). A DNA fragment encoding the ABI5 open reading frame was cloned into pET28a (Novagen) and the recombinant protein was induced and purified using a commercial kit according to the manufacturer's instructions (His trap, Amersham Pharmacia). Polyclonal anti-ABI5 antiserum was obtained from rabbits immunized with His-tagged ABI5. Standard methods using His-ABI5 coupled to a CNBr activated Sepharose 6-MB column (Amersham Pharmacia) were used to affinity purify specific ABI5 antibody from sera.
Plant protein extracts were resolved under reducing conditions using 10% SDS-polyacrylamide gels (Laemmli, 1970). […]
ABA concentrations (3-10 μM) that discriminate between abi5-4 mutants and WT under normal growth conditions were selected. […] Indeed, by immunoblot analysis, the ABI5 protein with a molecular mass of about 50 Kd was detected two days after stratification in the presence of ABA. […]
To determine whether the observed ABA-dependent accumulation of ABI5 levels was restricted to early development, we stratified WT seeds in the absence of ABA and then transferred the seedlings at different time intervals to a medium supplemented with 5 μM ABA (FIG. 3A). […] ABI5 levels were monitored by Western blot analysis. […] ABI5 levels were monitored by Western blot analyses as described for FIG. 1 (FIG. 3B).

[4] = system: HA-ABI5; assay: HA-ABI5 accumulation in WT/35S::HA-ABI5 transgenic lines by immunoblot; details: WT/35S::HA-ABI5 lines, anti-HA immunoblot
Protocol: Given the strong ABA-dependent ABI5 protein accumulation, we were interested to determine whether ABI5 protein stability is altered in the presence of ABA. For this purpose we generated WT/35S::HA-ABI5 transgenic lines constitutively expressing HA-ABI5 transcript. DNA manipulations were performed according to standard methods (Sambrook et al., 1989). 35S constructs were generated using a binary vector (Kost et al., 1998). Transgenic Arabidopsis lines (Ws ecotype) were generated using the Agrobacterium tumefaciens vacuum-infiltration method (Bechtold and Pelletier, 1998). Seeds (T1) from infiltrated plants were plated on MS medium containing 10 mg/L gluphosinate ammonium (Crescent Chemical) and 100 mg/L cefotaxime (Sigma).
In these lines, HA-ABI5 accumulation is 5-10 fold higher in the presence of ABA as shown by immunoblot analysis using anti-HA antibodies. 8-day old Ws/35S::HA-ABI5 seedlings (T3 generation) were transferred to MS medium with or without 50 μM ABA. Proteins were extracted at 0 hours, 10 minutes, 1 hour, 2 hours and 30 minutes, and 6 hours and ABI5 protein levels were monitored by Western blot analysis using antibodies to HA (FIG. 2A; each lane contains 5 μg protein). […] Equal amounts (5 μg) of protein were loaded on a 10% SDS-polyacrylamide (Novex) gel and analyzed by Western blots using rabbit antibody to HA (1:3,000; Santa Cruz).

[5] = system: WT Ws seeds; assay: Germination and early growth arrest of WT seeds on ABA plates
Protocol: as §1
Given the ABA-insensitivity of abi5-4 mutant and the timing of ABI5 induction upon ABA exposure, we studied the effect of ABA on growth during early development. […] Virtually all WT seeds were fully germinated on 5 μM ABA only 5 days post-stratification (FIG. 3C). Similar results were obtained with different Ws seed batches and for the ecotypes Landsberg and Columbia. At 10 μM ABA, complete germination was observed 8 days post-stratification (FIG. 3D). […] ABI5 levels remained constant as long as ABA was present. […] Upon ABA removal, all of the embryos started to green and resumed normal growth.

[6] = system: Ws/35S::HA-ABI5 transgenic plants; assay: Germination and growth of ABI5 overexpressing transgenic seeds on ABA
Protocol: To determine whether the presence of ABI5 is sufficient to arrest growth in the absence of ABA, we expressed the ABI5 gene from a constitutive promoter. Transgenic Arabidopsis lines expressing ABI5 under the control of the cauliflower mosaic virus 35S promoter in WT Ws or abi5-4 backgrounds were generated and several independent lines expressing various levels of ABI5 were obtained. WT Ws and Ws/35S::HA-ABI5 transgenic plants were grown for 5 days with 0, 0.5 and 5 μM ABA. In the transgenic line shown in FIG. 5A, ABI5 levels in absence of ABA were at least five fold higher than that in WT plants grown in the presence of ABA. Transgenic seeds were arrested in development at 0.5 μM ABA and only started to germinate after 5 days (FIG. 5A). WT Ws seeds were insensitive to 0.5 μM ABA and were fully germinated in 5 μM ABA after 5 days (FIG. 5A). Despite the accumulation of ABI5, the lines germinated and developed normally in the absence of ABA.
We next investigated the effect of ABA in ABI5 overexpressing lines. Addition of 5 μM ABA severely delayed germination by at least 7 days and blocked mature embryo growth in several lines. To measure more precisely the ABA response, we plated WT/35S::HA-ABI5 transgenic seeds on growth media containing different ABA concentrations. Treatment of WT/35S::HA-ABI5 plants with 0.5 μM ABA was sufficient to phenocopy the response of WT plants exposed to 5 μM ABA (FIG. 5A).

[7] = system: Ws/35S::HA-ABI5 transgenic lines; assay: ABA inhibition of root growth, ABI5-overexpressing lines; details: 5-day old seedlings, 5 and 10 μM ABA for 5 days, n=15
Protocol: (§3) The following methods were used in obtaining the further results described below. WT Ws seedlings and transgenic Ws seedlings carrying 35S::HA -ABI5 (WT/35S::HA -ABI5, T3 generation) were germinated and grown for 5 days on MS medium without ABA. Seedlings were then transferred to plates containing 5 μM ABA, and subsequent root growth was scored after 5 days. Values were expressed as the average ±SD of 15 seedlings. For water loss measurement, young rosette leaves at the same developmental stage were excised from WT Ws, WT/35S::HA-ABI5 and abi1 plants and weighed at the different times indicated (n=3).
(§4) At 0.5 μM ABA, WT plants grew normally (FIG. 5A). Inhibition of root growth by ABA was unaffected in abi5-4 mutants but was exacerbated in ABI5-overexpressing lines (FIG. 5B). Five-day old seedlings grown in the absence of ABA were transferred to 0, 5 and 10 μM ABA plates for 5 days. The root length of ABA-treated seedlings was expressed as a percentage of non-treated controls (n=15).

[8] = system: abi5-4 mutants; assay: ABA inhibition of root growth, abi5-4 mutants
Protocol: as §3, §4

CC1=CC(=O)CC(C)(C)[C@@]1(O)/C=C/C(C)=C\C(=O)O [ABA, Abscisic acid]
Percentage of survival after different period of drought treatment (hours) ([1]; 0 hours drought): 100% | Percentage of survival after different period of drought treatment (hours) ([1]; 8 hours drought): 100% | Percentage of survival after different period of drought treatment (hours) ([1]; 12 hours drought): 98% | Percentage of survival after different period of drought treatment (hours) ([1]; 24 hours drought): 90% | Percentage of survival after different period of drought treatment (hours) ([1]; 36 hours drought): 84% | Percentage of survival after different period of drought treatment (hours) ([2]; 0 hours drought): 100% | Percentage of survival after different period of drought treatment (hours) ([2]; 8 hours drought): 97% | Percentage of survival after different period of drought treatment (hours) ([2]; 12 hours drought): 55% | Percentage of survival after different period of drought treatment (hours) ([2]; 24 hours drought): 20% | Percentage of survival after different period of drought treatment (hours) ([2]; 36 hours drought): 0% | developmental window of efficient induction of ABI5 accumulation ([3]; WT Ws transferred to 5 μM ABA plates): 48-60 hours post-stratification | increase of ABI5 protein level in the presence of ABA ([3]; WT Ws, 5 μM ABA, first two days post-stratification): at least 10 fold | HA-ABI5 accumulation higher in the presence of ABA [4]: 5-10 fold | response of WT Ws seeds to ABA ([5]; 0.5 μM ABA, 5 days): insensitive | time after which all seeds fully germinate in the presence of ABA ([5]; ABA concentration range 3 to 10 μM): 10 days | embryos remaining white and quiescent, not growing ([5]; WT germinated embryos kept on ABA for at least a month, n=200): 95%±3 | time at which virtually all seeds were fully germinated ([5]; WT seeds, 5 μM ABA): 5 days post-stratification | time at which complete germination was observed ([5]; WT seeds, 10 μM ABA): 8 days post-stratification | delay of germination ([6]; ABI5 overexpressing lines, 5 μM ABA): at least 7 days | ABA concentration sufficient to phenocopy the response of WT plants exposed to 5 μM ABA ([6]; WT/35S::HA-ABI5 plants): 0.5 µM | time after which arrested transgenic seeds started to germinate ([6]; Ws/35S::HA-ABI5 seeds, 0.5 μM ABA): 5 days | inhibition of root growth by ABA compared with WT Ws [7]: exacerbated | inhibition of root growth by ABA [8]: unaffected
